The values that follow are results of earlier work, collected in patent US6503396B2 (priority 2000, dated 2003).

One data set concerns lung cancer. The note with it: lung cancer patients who exhibited no response to conventional anti-cancer drugs.
The test system of the next data set is breast cancer. The note with it: breast cancer patients who exhibited no response to conventional anti-cancer drugs.
The next data set deals with ovarian cancer. The note with it: ovarian cancer patients who exhibited no response to conventional anti-cancer drugs.

Consider `CC(=O)O[C@H]1C(=O)[C@@]2(C)[C@H]([C@H](OC(=O)c3ccccc3)[C@]3(O)C[C@H](OC(=O)[C@H](O)[C@@H](NC(=O)c4ccccc4)c4ccccc4)C(C)=C1C3(C)C)[C@]1(OC(C)=O)CO[C@@H]1C[C@@H]2O` [taxol], for which the “response rate to taxol” value is reported as 20% in the data set with lung cancer, 50% with breast cancer and 30% in the data set on ovarian cancer.
